Broadly, the Ki is the equilibrium dissociation constant of an inhibitor or competing ligand from its target. Higher therefore signals lower affinity.

The structures appear in SMILES notation. The source made the active and inactive calls. The rule behind the calls is not given here.

Test [1] has as its target T1, Glycogen phosphorylase, muscle form (Oryctolagus cuniculus, UniProt P00489).
T1 sequence (P00489 whole entry): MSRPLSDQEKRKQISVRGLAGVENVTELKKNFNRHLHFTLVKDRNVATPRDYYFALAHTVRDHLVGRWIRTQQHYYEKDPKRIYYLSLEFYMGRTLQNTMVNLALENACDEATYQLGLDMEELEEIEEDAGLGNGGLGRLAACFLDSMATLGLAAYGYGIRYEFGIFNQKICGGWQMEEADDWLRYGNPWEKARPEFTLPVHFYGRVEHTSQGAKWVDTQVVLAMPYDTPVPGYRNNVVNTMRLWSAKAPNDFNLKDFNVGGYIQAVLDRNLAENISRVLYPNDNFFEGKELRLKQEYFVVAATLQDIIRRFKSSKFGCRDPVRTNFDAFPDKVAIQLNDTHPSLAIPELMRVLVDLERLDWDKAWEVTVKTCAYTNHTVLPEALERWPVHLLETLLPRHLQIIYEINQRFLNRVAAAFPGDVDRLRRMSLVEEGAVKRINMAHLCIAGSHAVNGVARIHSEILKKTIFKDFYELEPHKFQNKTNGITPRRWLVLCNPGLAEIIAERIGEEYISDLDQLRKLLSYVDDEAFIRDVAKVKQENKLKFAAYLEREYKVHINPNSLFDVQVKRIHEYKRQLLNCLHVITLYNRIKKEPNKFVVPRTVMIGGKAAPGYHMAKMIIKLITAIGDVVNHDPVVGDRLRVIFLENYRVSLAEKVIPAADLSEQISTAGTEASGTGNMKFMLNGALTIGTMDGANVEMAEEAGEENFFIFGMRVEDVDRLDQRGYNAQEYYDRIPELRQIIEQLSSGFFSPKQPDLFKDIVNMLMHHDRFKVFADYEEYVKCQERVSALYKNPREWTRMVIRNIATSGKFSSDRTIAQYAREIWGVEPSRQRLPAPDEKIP
Description: Inhibition of rabbit skeletal muscle glycogen phosphorylase b by Lineweaver-Burk plot method

For test [2], the target named is T2, Glycogen phosphorylase, muscle form (Oryctolagus cuniculus) (UniProt P00489).
T2 sequence (whole entry): T1 sequence (P00489 whole entry)
Nature of the test: Inhibition of rabbit skeletal muscle glycogen phosphorylase bat 625 uM by Lineweaver-Burk plot method.

For the compound `O=C(N[C@@H]1O[C@H](CO)[C@@H](O)[C@H](O)[C@H]1O)c1noc(-c2cccc3ccccc23)n1`, in test [1], the Ki came to 33 µM. Regarding `O=C(N[C@@H]1O[C@H](CO)[C@@H](O)[C@H](O)[C@H]1O)c1nnc(-c2cccc3ccccc23)o1`, the Ki in test [1] was 172 µM. The same measure, in the same setting: the value for `O=C(N[C@@H]1O[C@H](CO)[C@@H](O)[C@H](O)[C@H]1O)c1cn(-c2ccccc2)nn1` was 75 µM. Regarding `O=C(N[C@@H]1O[C@H](CO)[C@@H](O)[C@H](O)[C@H]1O)c1nc(-c2ccc3ccccc3c2)no1`, the inhibition entry in test [2] is “inactive”.

In test [1], `O=C(N[C@@H]1O[C@H](CO)[C@@H](O)[C@H](O)[C@H]1O)c1cc(-c2ccccc2)no1` returned a Ki of 172 µM.

In the case of `O=C(N[C@@H]1O[C@H](CO)[C@@H](O)[C@H](O)[C@H]1O)c1nc(-c2cccc3ccccc23)no1`, the Ki in test [1] was 145 µM. `O=C(N[C@@H]1O[C@H](CO)[C@@H](O)[C@H](O)[C@H]1O)c1cc(-c2ccc3ccccc3c2)no1`: the inhibition entry in test [2] was “inactive”. As to `O=C(N[C@@H]1O[C@H](CO)[C@@H](O)[C@H](O)[C@H]1O)c1nnc(-c2ccccc2)o1`, the Ki in test [1] came out at 545 µM. In test [1], `O=C(N[C@@H]1O[C@H](CO)[C@@H](O)[C@H](O)[C@H]1O)c1nnc(-c2ccc3ccccc3c2)o1` gave a Ki of 30 µM. On to `O=C(N[C@@H]1O[C@H](CO)[C@@H](O)[C@H](O)[C@H]1O)c1noc(-c2ccc3ccccc3c2)n1`, for which the inhibition result in test [2] was “inactive”.

In turn, `O=C(N[C@@H]1O[C@H](CO)[C@@H](O)[C@H](O)[C@H]1O)c1nc(-c2ccccc2)no1` showed a Ki in test [1] of 104 µM. On to `O=C(N[C@@H]1O[C@H](CO)[C@@H](O)[C@H](O)[C@H]1O)c1cn(-c2ccc3ccccc3c2)nn1`, for which the inhibition entry in test [2] is “inactive”. Compound `O=C(N[C@@H]1O[C@H](CO)[C@@H](O)[C@H](O)[C@H]1O)c1noc(-c2ccccc2)n1` came in with an inhibition constant Ki in test [1] of 136 µM.
